Source: patent US20220387393A1, “METHODS FOR THE TREATMENT OF DYSMYELINATING/DEMYELINATING DISEASES” (Board of Regents, The University of Texas System, priority 2019, published 2022)

Experiments:
[1] = test system: corpus callosum (CC) myelin of mouse brains; type: in vivo; conditions: for delayed-onset demyelination and myelin lipid reduction in the CC: 6 months, but not 4 months, after chemotherapy cessation
Description: (§1) FIGS. 4A-4C. […] (FIG. 4A) Quantitative FluoroMyelin staining of the corpus callosum (CC) in 4-month and 6-month mouse brains treated with 5-FU, saline and/or KD3010. (FIG. 4B) Quantitative immunofluorescent staining of oligodendrocyte lineage marker Olig2 in the CC of 6-month mouse brains treated with 5-FU or saline.

[2] = test system: corpus callosum (CC) myelin of mouse brains; conditions: 6 months after a clinically relevant dose for 1 week; cited from earlier work
[3] = Dickey et al., 2016; cited from earlier work
[4] = test system: demyelination induced by 5-FU; test: 5-FU (chemotherapy)-induced demyelination in mice, treatment with agonist; type: in vivo; conditions: FluoroMyelin staining of corpus callosum, mouse brains treated with 5-FU
Description: as §1

Qk-iCKO mice = test: Qki depletion-induced demyelination in Qk-iCKO mice, daily oral administration; type: in vivo; conditions: for Qk-iCKO mice that lived for more than 100 days: 3 of 13 treated Qk-iCKO mice; for maximum survival duration increased / clinical scores / onset of neurological deficits / prolonged median survival times / body weights: Qk-iCKO mice; for maximum survival duration increased: compared to controls; for clinical scores / onset of neurological deficits / prolonged median survival times / body weights: oral administration, compared to vehicle; for body weights: 4 weeks after tamoxifen injection; for higher myelin lipid levels (FluoroMyelin) than vehicle-treated Qk-iCKO mice: corpus callosum; for higher myelin lipid levels (FluoroMyelin) than vehicle-treated Qk-iCKO mice / myelin sheaths (g-ratio) / more myelinated axons than vehicle-treated Qk-iCKO mice: after 5 weeks of treatment; for myelin sheaths (g-ratio) / more myelinated axons than vehicle-treated Qk-iCKO mice: optic nerves; for myelin sheaths (g-ratio): versus vehicle; for more myelinated axons than vehicle-treated Qk-iCKO mice: electron micrographs
Description: FIGS. 2A-2J. […] In FIG. 2A, the four groups within each week represent, from left to right, Ctrl (Veh), iCKO (Veh), Ctrl (KD3010), and iCKO (KD3010). In FIG. 2D, the four groups within each week represent, from left to right, Ctrl (Veh), iCKO (Veh), Ctrl (Bex), and iCKO (Bex). In FIGS. 2B and 2E, the two lines that reach the X-axis represent the iCKO populations. (FIGS. 2C and 2F) Body weights of Qk-iCKO mice and controls receiving daily oral administration of KD3010, Bex, or Veh for 4 weeks after tamoxifen injection. (FIGS. 2G and 2H) Representative electron micrographs and quantification of the percentage of myelinated axons and g-ratio of the optic nerves of the experimental mice after 5 weeks of treatment. Scale bars, 500 nm. (FIGS. 2I and 2J) Representative images and quantification of FluoroMyelin level in the corpus callosum tissues of experimental mice after 5 weeks of treatment. Scale bars, 50 μm. Data are mean±s.d.; one-way ANOVA with Fisher's LSD correction. *P<0.05; **P<0.01; ***P<0.001; ****P<0.0001. ns, not significant.
Therefore, whether PPARβ-RXRα agonists could alleviate lipid defect-induced demyelination and its related symptoms was tested.

O=c1[nH]cc(F)c(=O)[nH]1 [5-FU, 5-fluorouracil]
delayed-onset demyelination and myelin lipid reduction in the CC [1]: exhibited delayed-onset demyelination and myelin lipid reduction
changes in myelin protein levels and oligodendrocyte numbers ([1]; CC of 6-month mouse brains): minimal changes
Qki in the oligodendrocytes in the lesions ([1]; Olig2/Qki double staining, CC of 6-month mouse brains): greatly reduced
delayed-onset demyelination (Han et al., 2008) [2]: developed delayed-onset demyelination

C[C@@H]1CN(c2ccc(OC(F)(F)F)cc2)C[C@H](C)N1S(=O)(=O)c1cccc2c1C[C@@H](C(=O)O)C2 [KD3010, (S)-4-[cis-2,6-dimethyl-4-(4-trifluoromethoxy-phenyl)piperazine-1-sulfonyl]-indan-2-carboxylic acid]
CNS permeability [3]: CNS-permeable
demyelination induced by 5-FU [4]: greatly alleviated
Qk-iCKO mice that lived for more than 100 days (Qk-iCKO mice): 23.1%
maximum survival duration increased (Qk-iCKO mice): 3.72 fold
clinical scores (Qk-iCKO mice): lowered
onset of neurological deficits (Qk-iCKO mice): significantly delayed
prolonged median survival times (Qk-iCKO mice): 2.34 fold
body weights (Qk-iCKO mice): increased
higher myelin lipid levels (FluoroMyelin) than vehicle-treated Qk-iCKO mice (Qk-iCKO mice): 119.4%
myelin sheaths (g-ratio) (Qk-iCKO mice): thicker
more myelinated axons than vehicle-treated Qk-iCKO mice (Qk-iCKO mice): 115.3%

C=C(c1ccc(C(=O)O)cc1)c1cc2c(cc1C)C(C)(C)CCC2(C)C [bexarotene]
Qk-iCKO mice that lived for more than 100 days (Qk-iCKO mice): 23.1%
maximum survival duration increased (Qk-iCKO mice): 4.03 fold
clinical scores (Qk-iCKO mice): lowered
onset of neurological deficits (Qk-iCKO mice): significantly delayed
prolonged median survival times (Qk-iCKO mice): 1.41 fold
body weights (Qk-iCKO mice): increased
higher myelin lipid levels (FluoroMyelin) than vehicle-treated Qk-iCKO mice (Qk-iCKO mice): 89.5%
myelin sheaths (g-ratio) (Qk-iCKO mice): thicker
more myelinated axons than vehicle-treated Qk-iCKO mice (Qk-iCKO mice): 73.7%

COc1cccc2c1C(=O)c1c(O)c3c(c(O)c1C2=O)C[C@@](O)(C(=O)CO)C[C@@H]3O[C@H]1C[C@H](N)[C@H](O)[C@H](C)O1 [doxorubicin]
delayed-onset demyelination and myelin lipid reduction in the CC [1]: exhibited delayed-onset demyelination and myelin lipid reduction

CN(Cc1cnc2nc(N)nc(N)c2n1)c1ccc(C(=O)N[C@@H](CCC(=O)O)C(=O)O)cc1 [methotrexate]
delayed-onset demyelination and myelin lipid reduction in the CC [1]: exhibited delayed-onset demyelination and myelin lipid reduction
